In a melting point compilation (Tetko et al.; mined from patent text by program, amines drawn as free bases though some values may be those of a salt):

melting point [°C]	SMILES
98.5 to 100	CCCN(CCC)c1c(CC)nn2c(-c3cnc(N(C)C)cc3C)cccc12
60.5 to 61.5	O=C(CSCCNC(=O)c1ccco1)NCCCOc1cccc(CN2CCCCC2)c1
160 to 162	COc1ccc(C=CC=Cc2ccccc2)cc1
147	C#CCCC(O)=C(C#N)C(=O)Nc1ccc(Cl)c(C)c1
93	Cc1ccc(CC2CCN(C(=O)c3nc4ccc(O)cc4[nH]3)CC2)cc1
78 to 80	CN(C)Cc1nc(-c2ccccc2)cn1Cc1ccccc1
192 to 194	Nc1sc(-c2ccccn2)c(CN(C2CCCCC2)C2CCCCC2)c1C(=O)c1ccc(Cl)cc1
58 to 60	CC(=O)OCC1OC(n2cnc3c(Cl)nc(N)nc32)C(OC(C)=O)C1OC(C)=O (configuration not stated)
159 to 160	COc1ccc(-n2nnc(-c3ccc(Cl)cc3C(F)(F)F)c2N)cc1
90 to 94	CCCc1c(O[C@H]2CCC[C@H](Oc3ccc(C(=O)CCC(=O)O)cc3)C2)ccc(C(C)=O)c1O (relative stereo)
116 to 117	CCc1cc(Oc2ccc([C@H](O)[C@@H](Cc3cccc(OC(F)(F)C(F)F)c3)NC(=O)c3cccc4c3C=CCCC4)cc2)ccc1Cl (racemic)
169 to 171	C=C[C@H]1C(=O)N(C)[C@H](C(C)(C)C)N1C(=O)c1ccccc1
115 to 116	CCOC(=O)NC1=NCC(c2ccc(OCC)cc2)N1C (configuration not stated)
179 to 182	CC(=O)NNc1ccc(Cl)c(Cl)c1
66 to 68	CC(=O)C1=Cc2ccccc2NN=C1
241	CCOC(=O)COc1ccc(OCC)cc1C(Nc1ccc(C(=N)NC(=O)OC(C)(C)C)cc1)C(=O)OCC (racemic)
103	COc1ccc(S(=O)(=O)c2c(C(C)C)cn3cccc(C)c23)cc1
104 to 106	COc1ccc(C2Cc3cc(OC)c(OC)c(OC)c3C2=O)cc1 (configuration not stated)
208 to 210	COCCCn1c(=O)[nH]c2ncc(-c3ccc(O)cc3)nc21
195 to 197	Cc1[nH]n(-c2c(Cl)cc(C(F)(F)F)cc2Cl)c(=O)c1C=O
114 to 117	CC(=O)N1CCc2c(sc(CCN3CCC(c4noc5cc(F)ccc45)CC3)c2Br)C1
183 to 185	COc1cc2c(cc1OC)CCC(N(Cc1ccccc1)C(=O)c1ccc(C)cc1)=C2
93	CC(C)(N)C1CN([C@@H]2Cc3ccccc3[C@H]2Oc2ccc(C#N)cc2Cl)C1
153 to 154	O=c1oc2cc(OCc3nnn[nH]3)cc(OCc3nnn[nH]3)c2c2c1C(c1ccccc1)CCC2 (configuration not stated)

melting point [°C]	SMILES
82 to 83	CC1=C(C(=O)OCOC(=O)C(C)(C)C)C(C)C(C(=O)OCOC(=O)C(C)(C)C)=C(C)N1
131 to 133	CC(C)(C)OC(=O)NC(Cc1ccccc1)C(O)CNCC(O)C(Cc1ccccc1)NC(=O)OC1c2ccccc2CC1O (configuration not stated)
197 to 198	Cc1noc(NC(=O)N2CCN(c3nccc(-c4ccc(F)cc4F)n3)CC2)c1C
70 to 71	CCC(O)c1cc(C(=O)c2ccccc2)no1 (configuration not stated)
206 to 210	CC(C)c1ccc2nc3c(C(=O)O)cccn3c(=O)c2c1
207 to 209	CCOCc1nc2c(N)nc3ccccc3c2n1CC1(O)CCC2(CC1)OCCO2
161 to 163	Nc1ccn(C2CC(O)C(CO)O2)c(=O)c1F (configuration not stated)
94 to 100	CN1CCN(c2cc(Cl)cc3c2c(=O)n(Cc2ccncc2)c(=O)n3Cc2ccccc2)CC1
182 to 183	CCN(CC)c1ccc(C2(c3c(C)n(CCOc4ccccc4)c4ccccc34)OC(=O)c3ccccc32)c(C)c1 (configuration not stated)
58 to 61	COC1=C(OC)C(=O)C(CCC(C)CCC(=O)O)=C(C)C1=O (configuration not stated)
270	CC(C)c1ccc2[nH]c(=O)c(C(=O)c3ccccc3)c(O)c2c1
136 to 139	C[C@H](Nc1nc(Nc2cccc(NS(C)(=O)=O)c2)nc2[nH]cnc12)c1ccccc1
93 to 96	Cc1ccoc1C(=O)Nc1c(C)cc(N2CCCOCC2)nc1N1CC[C@@H](F)C1
227 to 228	COc1ncc(Cc2n[nH]c(=O)c3ccccc23)cc1Br
115 to 117	CCCCOC(=O)c1ccc(N2CCN(CC=Cc3ccc(Cl)cc3)CC2)cc1
155	CCCOC(=O)C=Nc1cc(Cl)ccc1C(=O)O
169 to 170	CS(=O)c1ccc(-n2cnc3ccc(-c4nnc(CCc5cccc(C(F)(F)F)c5)o4)cc32)cc1 (configuration not stated)
151 to 154	CC(NC(=O)Nc1ccc(Br)cn1)c1ncccc1F (configuration not stated)
127 to 130	CC(C)(C)OC(=O)N[C@H](C(=O)N1CCC[C@H]1C(=O)NC1CCc2nc(N)ncc2C1)C(c1ccccc1)c1ccccc1 (some centres not stated)
136 to 139	CCC1(Br)Cc2cc(OCC(=O)O)c(C)c(C)c2C1=O (configuration not stated)
228 to 230	CC1(C)Oc2ccc(C#N)cc2[C@@H](NC=O)[C@@H]1O (relative stereo)
145 to 146	CCOC(=O)Nc1ccc(N2CCC(=O)CC2)cc1
227 to 231	CNC(=O)c1ccc(N2CCN(Cc3cc(Cc4ccccc4)c4c(c3)NC(=O)C(C)O4)CC2)cc1 (configuration not stated)
203 to 204	COC(=O)/C(=C/C=C/c1cc2cc(Cl)c(Cl)cc2[nH]1)OC

melting point [°C]	SMILES
225 to 226	Cc1cc(C=C2CCCC(=Cc3cc(C)c(O)c(C)c3)C2=O)cc(C)c1O
89 to 91	COCCOCOc1ccccc1N1C(C(C)(C)C)ONC1(Br)C(C)(C)C (configuration not stated)
65 to 67	O=C(Nc1ccc(-n2nc(C(F)(F)F)cc2C(F)(F)F)c(C(F)(F)F)c1)c1ccc(Cl)cc1
58 to 60	CCOC(=O)COc1cccc2c1CCCC2=O
102 to 104	COC(=O)C(Oc1cc(OCc2ccsc2)ccc1C#N)c1ccccc1Cl (racemic)
192 to 193	CC(C)c1cc(NC(=O)N2CCN(c3ccnc(-c4cccc(F)c4F)n3)CC2)nnc1Cl
169 to 173	O=C1N[C@H](C(=O)O)CSCCCCCCCC1CS (some centres not stated)
151 to 153	CC(C#Cc1cccc(OCc2ccccc2)c1)N(O)C(N)=O (configuration not stated)
114 to 116	CC(C)(C)N1Sc2ccccc2C1O (configuration not stated)
> 300	Cc1cc2[nH]c3ncccc3c(=O)n2n1
184 to 186	C[C@@H](n1cnc2cc(-c3ccc(N)cc3)sc2c1=O)[C@](O)(Cn1cncn1)c1ccc(F)cc1F
120 to 123	COc1ncccc1NC(=O)Nc1ccc(N2CCN(C(=O)Nc3ccc(OCCO)cc3C(F)(F)F)CC2)cc1
80 to 82	CC(C)Oc1ccc(CCCOc2cc(CCC(=O)O)n(-c3ccccc3)n2)c(Oc2ccc(C(F)(F)F)cn2)c1
110 to 111	C=CCC1(C(=O)NCc2ccccn2)c2ccccc2-c2ccccc21
71 to 73	CC(C)Cc1nc[nH]n1
140 to 141	COc1ccc2c(c1)c(CCNC(C)=O)cn2S(=O)(=O)c1ccccc1
212 to 214	Clc1ccc2c(c1)C1(CN3CCC(Nc4ncccn4)CC3)CC2c2ccccc21 (configuration not stated)
157 to 160	CC(C)(O)Cn1c(CO)nc2c(N)nc3cc(-c4cccc(C(=O)N5CCCC5)c4)cnc3c21
176	CCOC(=O)c1csc(C)c1S(=O)(=O)NC(=O)n1nc(OC)n(C)c1=O
100 to 102	BrCCCNC(c1ccccc1)(c1ccccc1)c1ccccc1
260 to 262	Nc1nc2ccccc2c2c1ncn2CC1(O)CCOCC1
292 to 293	O=C(Nc1nc(-c2ccccc2)cs1)C(=O)Nc1nc(-c2ccccc2)cs1
264 to 268	COc1ccc2c(c1)c1c3c(c(-c4c(Cl)cccc4OC)cc1n2CCO)C(=O)NC3=O
67 to 68	COc1c(Cl)cc(Br)cc1Cl

melting point [°C]	SMILES
71 to 73	CN(C(=O)Cl)c1ccc2c(c1)OCO2
110	COc1ccc(-n2nc(C)cc2-c2ccccc2)cc1
124 to 127	O=C1c2ccccc2C(=O)N1CC#CCSc1nccc(NC(=S)NCC(F)(F)F)n1
96 to 98	CS(=O)(=O)N1CCC(Nc2nc(Nc3ccc(F)c(CN4CCOCC4)c3)nc(OCC(F)(F)F)n2)CC1
164 to 165	CCCCC(=O)c1c(-c2ccc3c(Br)c(OCC(=O)O)ccc3c2)sc2ccccc12
186 to 187	COc1cc(CC(C#N)=CNc2ccccc2)cc(OC)c1NC=O
155 to 156	CNC(c1ccc(OC)cc1)c1csc(S(N)(=O)=O)c1 (configuration not stated)
169 to 171	Cc1cc(C)c(COc2cccnc2NC(=N)Nc2ccc(Cl)cc2)c(C)c1
91 to 92	CN1C(=O)SC(Cc2ccc(N)cc2)C1=O (configuration not stated)
120 to 125	CCN(CC)CCn1nc2c3c(c(CNS(C)(=O)=O)ccc31)Sc1ccccc1-2
74 to 75	COC(=O)c1cccc(O)c1C
148 to 149	CCCCC(=O)c1c(-c2ccc3cc(O)ccc3c2)oc2ccccc12
100 to 102	CNC(=S)NN=C(CCCCl)c1cccnc1
63 to 66	CCc1cnc(SC(C)(C)C)c(C#N)c1
170 to 172	Cc1nc(-n2ccccc2=O)sc1C(=O)NCc1ccc(F)cc1
190 to 191	Cc1ccc(CSc2nnc(-c3ccc4c(c3)CCO4)o2)cc1
114 to 116	CC(C)C(NC(=O)OC(C)(C)C)C(=O)NC(C(=O)OC1CC(n2cc(C=CBr)c(=O)[nH]c2=O)OC1CCl)C(C)C (configuration not stated)
91 to 93	CCCCCCCCCCCc1nnc2n1-c1sc(CC)cc1C(c1ccc(OC)cc1)OC2 (configuration not stated)
155 to 158	N#Cc1ncc(NCCO)nc1N1CCC(c2ccc(F)cc2)CC1
75 to 83	CC(C)(C)OC(=O)N1[C@@H](Cc2ccc(O[Si](C)(C)C(C)(C)C)c(C(C)(C)C)c2)C(=O)O[C@H](c2ccccc2)[C@@H]1c1ccccc1
200 to 202	COc1cc2c(Nc3ccc(Cl)cc3F)ncnc2cc1OCCOc1ccncc1
244 to 246	O=C1CSc2ccc(S(=O)(=O)Cc3c(Cl)cccc3Cl)cc2N1

SMILES	melting point [°C]
CCCN(CCC)Cc1noc(-c2ncn3c2[C@@H]2CCCN2C(=O)c2c(Cl)cccc2-3)n1	155 to 158
CC12CCC(=O)C=C1CCC1C2C(F)CC2(C)C(O)CCC12 (configuration not stated)	161 to 162
COC(=O)COc1ccc(CC(C)NCC(O)c2ccc(O)c(CO)c2)cc1 (configuration not stated)	60 to 63
